# Measured values from patent US8785483B2, “Methods for treating COPD” (The Board of Regents of the University of Texas System, priority 2010, dated 2014).
# System: Muc5AC
# Assay: RT-PCR of Muc5AC in IL-13-treated SAEC monolayer
# Type: cell-based, human
# Conditions: SAEC monolayer at ALI, IL-13 18 h
# Experimental: FIGS. 6A-6B. AR inhibition prevents IL-13-induced expression of Mucin and transcription factor SPDEF in airway epithelial cell monolayer. (A) The airway epithelial cell monolayer at ALI was serum starved without or with fidarestat and incubated with IL-13 for 18 h. Total RNA was isolated and subsequently RT-PCR was performed to assess the expression of Muc5AC and SPDEF. The bar diagrams show densitometric analysis of the corresponding blots (n=4). *p<0.001 vs Control; **p<0.001 vs IL-13; (B) The monolayer of ciliated airway cells at ALI was treated with AR inhibitor for 24 h and subsequently incubated with IL-13 for 24 or 48 h. At the end of incubation, cell lysate was prepared and subjected to western blotting using antibodies against Muc5AC, Muc5B, and SPDEF. The membranes were stripped and re-probed with antibodies against GAPDH to show the equal loading of protein. A representative blot is shown (n=4). *p<0.0001 vs Control; **p<0.001 vs IL-13.
# For air-liquid interface (ALI) culture, SAEC were seeded at 8.5×10^4 cells/12-mm-diameter PET transparent insert with […] pores (12-well millicell culture insert; Millipore) and pre-coated with rat tail collagen type-1 (Sigma-Aldrich). The cells were grown submerged in the differentiation medium as described earlier by Zhen et al. (Am J Respir Cell Mol Biol 36: 244-253, 2007). […]
structure (smiles),measurement,value
"NC(=O)[C@@H]1C[C@]2(NC(=O)NC2=O)c2cc(F)ccc2O1 [fidarestat, (2S,4S)-2-aminoformyl-6-fluoro-spiro[chroman-4,4′-imidazolidine]-2′,5′-dione]",IL-13-induced Muc5AC-specific RNA expression,significantly prevented the increase
